Columns and labels:
[1] = target: Avi-tagged FL MALT-1 (Homo sapiens (Human), UniProt Q9UDY8); assay: MALT-1 Fluorogenic Peptide Cleavage Assay (MALT1 inhibition assay); format: biochemical; conditions: Ac-LRSR-AMC peptide substrate, 30 min pre-incubation, 90 min reaction at room temperature
Procedure: Inhibition of MALT1 activity by the presence of small molecules was evaluated using MALT-1 Fluorogenic Peptide Cleavage Assay. The assay utilizes a quenched AMC-labelled peptide that contains the MALT-1 recognition sequence and cleavage site (LRSR). MALT-1 mediated cleavage of the peptide relieves the quenching and leads to an increase in fluorescence at excitation (342 nm) and emission (441 nm).
The following reagents were obtained commercially and used to prepare standard reagent formulations as further described below: N-2-hydroxyethylpiperazine-N-2-ethane sulfonic acid (HEPES) (1 M, pH 7.5, stored at 4° C.), sodium citrate (stored at RT), tris(2-carboxyethyl) phosphine hydrochloride (T-CEP) (500 mM, stored at −20° C.), ethylenediaminetetraacetic acid (EDTA) (500 mM, stored at RT), dimethylsulfoxide (DMSO, stored at RT), 3-[(3-cholamido-propyl)dimethylammonio]-1-propane sulphate (CHAPS) (stored at RT), dimethylsulfoxide (DMSO), DMSO (Fisher Scientific, stored at RT), Avi-tagged FL MALT-1 (Pharmaron, stored at −70° C.), Ac-LRSR-AMC Peptide (SM Biochemicals, stored at −20° C.)., and ultrapure water (MILLLI-Q©).
The standard reagent formulations used in this assay were prepared and stored as follows. A 1.1 M solution of sodium citrate (161.3 g, 500 mL) was prepared and stored at room temperature. A 10% (w/v) CHAPS solution (2.0 g, 20 mL) was prepared and stored at 4° C. A 500 mM HEPES solution having pH of 6.89 was prepared from 200 mL of a 1 M HEPES solution having a pH of 7.5 using concentrated hydrochloric acid and brought to a final volume of 400 mL with MILLI-Q© H2O. The substrate, 10 mM Ac-LRSR-AMC Peptide, was prepared (10 mg, 1.370 mL DMSO) and stored at −20° C.
Compounds were plated to provide a 2% DMSO final concentration using a ProxiPlate-384 Plus F Black 384-shallow well microplate. The assay-ready plates were equilibrated to room temperature. A reaction buffer (30 mL total volume) was prepared by combining HEPES (pH 6.89, 25 mM, 1.5 mL), sodium citrate (660 mM, 18.0 mL), T-CEP (1 mM, 0.06 mL), EDTA ([…], 0.06 mL), CHAPS (0.05%, 0.15 mL), DMSO (2%, 0.6 mL), and MILLI-Q© H2O (10.23 mL; 9.63 mL when backfilled to 2% DMSO) followed by thorough mixing. DMSO was added only when compound plates had not been DMSO-backfilled to 2%.
MALT-1 was thawed and kept on ice. Peptide substrate was thawed on the bench under ambient conditions. A MALT-1 enzyme working stock was prepared from Avi-tagged FL MALT-1 (40 nM in a prepared reagent volume of 16.5 μL) and the reaction buffer (13.0 mL). MALT1 working stock (5 μL) was added to each well of the microplate. MALT-1 was pre-incubated with compounds for 30 minutes at room temperature.
Two substrate working stocks (Km and 10×Km) were prepared. The 1×Km substrate was prepared from Ac-LRSR-AMC Peptide (50 μM in a prepared reagent volume of 35.0 μL) and the reaction buffer (6.965 mL). The 10×Km substrate was prepared from Ac-LRSR-AMC Peptide (280 μM in a prepared reagent volume of 196.0 μL) and the reaction buffer (6.804 mL). The reaction was initiated by the addition of substrate working stock (5 μL, 50 μM) to Km plates and the addition of substrate working stock (5 μL 280 μM) to 10×Km plates. The plates were covered and incubated on the bench at room temperature for 90 minutes.
Fluorescence intensity was determined using a CLARIOstar microplate reader (BMG LABTECH) using the optimised AMC mode. Before taking readings, a 70% gain was applied on the neutral control well. Compound data were normalised to % Inhibition and used to plot sigmoidal concentration response curves to yield various parameters including IC50.

[2] = tested on: NF-kB reporter in Jurkat cells; assay: NF-kB reporter assay in Jurkat cells stimulated with aCD3/aCD28/PMA; format: cell-based; conditions: Homo sapiens; Jurkat cells, 1 hr compound pre-incubation, aCD3/aCD28/PMA stimulation 4 hr, One-Glo readout; read-out: NF-kB Reporter Assay IC50
Procedure: Jurkat cells were maintained in complete RPMI 1640 media supplemented with 10% FBS. Prior to the assay, 120 nL of the serial diluted compound was added in each well of 384-well flat bottom white plate (Corning #3570) by using liquid handler Echo550. Jurkat cells were harvested by centrifugation at 120 g for 10 min and resuspended in fresh RPMI 1640 media without serum. […] (25,000 cells) were seeded in each well of 384-well plate containing compound. After 1 hr incubation at 37° C. in a 5% CO2 incubator, […] of diluted aCD3/aCD28/PMA (final concentration at […] and […], respectively) in RPMI 1640 without serum were added to each well. After incubation at 37° C. in 5% CO2 for 4 hr, […] of One-Glo reagent (Promega #E6120) was added into each well. The plate was left at room temperature for 5 min and the signal was measured on EnVision (PerkinElmer).
Compounds in which an IC50 was not measured are designated as “N/A”.

Avi-tagged FL MALT-1, sequence (Q9UDY8 whole entry): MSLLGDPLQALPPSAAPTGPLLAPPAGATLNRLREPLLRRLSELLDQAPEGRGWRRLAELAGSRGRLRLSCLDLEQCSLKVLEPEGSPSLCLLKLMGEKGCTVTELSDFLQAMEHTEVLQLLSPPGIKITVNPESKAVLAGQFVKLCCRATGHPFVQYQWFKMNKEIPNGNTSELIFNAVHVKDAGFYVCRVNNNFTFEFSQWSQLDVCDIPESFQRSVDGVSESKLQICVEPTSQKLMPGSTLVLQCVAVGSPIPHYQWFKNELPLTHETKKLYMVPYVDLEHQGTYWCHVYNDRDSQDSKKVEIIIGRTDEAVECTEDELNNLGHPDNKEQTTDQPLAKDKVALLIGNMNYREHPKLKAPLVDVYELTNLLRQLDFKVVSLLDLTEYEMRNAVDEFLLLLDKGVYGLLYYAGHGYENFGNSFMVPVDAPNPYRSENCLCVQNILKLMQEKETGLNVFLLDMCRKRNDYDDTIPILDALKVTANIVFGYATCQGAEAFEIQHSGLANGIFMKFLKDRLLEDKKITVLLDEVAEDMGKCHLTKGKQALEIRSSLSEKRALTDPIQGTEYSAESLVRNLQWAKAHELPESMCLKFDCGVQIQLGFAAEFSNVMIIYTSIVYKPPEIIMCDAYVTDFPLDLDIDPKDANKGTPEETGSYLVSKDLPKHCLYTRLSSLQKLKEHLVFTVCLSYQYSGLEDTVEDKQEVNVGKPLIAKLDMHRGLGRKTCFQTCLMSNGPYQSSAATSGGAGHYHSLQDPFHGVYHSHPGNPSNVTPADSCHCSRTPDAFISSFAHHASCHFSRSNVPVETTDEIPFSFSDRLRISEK

| Structure (SMILES) | IC50 [1] [nM] | IC50 [2] [nM] |
| --- | --- | --- |
| Cn1ncc2cccc(NS(=O)(=O)c3cnn(-c4cc(C5(O)CCOC5)ccn4)c3)c21 (stereo in doubt) [Compound I-310, (S)-1-(4-(3-hydroxytetrahydrofuran-3-yl)pyridin-2-yl)-N-(1-methyl-1H-indazol-7-yl)-1H-pyrazole-4-sulfonamide] | > 2500 | < 400 |
| Cn1ncc2cccc(NS(=O)(=O)c3cnn(-c4cc(C5(O)CCOC5)ccn4)c3)c21 (stereo in doubt) [Compound I-312, (R)-1-(4-(3-hydroxytetrahydrofuran-3-yl)pyridin-2-yl)-N-(1-methyl-1H-indazol-7-yl)-1H-pyrazole-4-sulfonamide] | > 2500 | < 400 |
| CC[C@](C)(OC)c1ccnc(-n2cc(S(=O)(=O)Nc3cccc4cnn(C)c34)cn2)c1 (stereo in doubt) [Compound I-313, 1-(4-(2-methoxybutan-2-yl)pyridin-2-yl)-N-(1-methyl-1H-indazol-7-yl)-1H-pyrazole-4-sulfonamide] | > 2500 | < 400 |
| CC[C@@](C)(OC)c1ccnc(-n2cc(S(=O)(=O)Nc3cccc4cnn(C)c34)cn2)c1 (stereo in doubt) [Compound I-314, 1-(4-(2-methoxybutan-2-yl)pyridin-2-yl)-N-(1-methyl-1H-indazol-7-yl)-1H-pyrazole-4-sulfonamide] | > 2500 | < 400 |
| CCc1ccc2cnn(C)c2c1NS(=O)(=O)c1cnn(-c2ccnc(C(F)(F)F)c2)c1 [Compound I-2, N-(6-Ethyl-1-Methyl-1H-Indazol-7-yl)-1-(2-(Trifluoromethyl) Pyridin-4-yl)-1H-Pyrazole-4-Sulfonamide] | ≤ 400 | < 400 |
| COc1ccc2cnn(C)c2c1NS(=O)(=O)c1cnn(-c2ccnc(C(F)(F)F)c2)c1 [Compound I-4, N-(6-Methoxy-1-Methyl-1H-Indazol-7-yl)-1-(2-(Trifluoromethyl)Pyridin-4-yl)-1H-Pyrazole-4-Sulfonamide] | ≤ 400 | < 400 |
| Cn1ncc2ccc(CC#N)c(NS(=O)(=O)c3cnn(-c4ccnc(C(F)(F)F)c4)c3)c21 [Compound I-6, N-(6-(Cyanomethyl)-1-Methyl-1H-Indazol-7-yl)-1-(2-(Trifluoromethyl)Pyridin-4-yl)-1H-Pyrazole-4-Sulfonamide] | 400 to 1000 | 1000 to 2500 |
| CN(C)c1ccc2cnn(C)c2c1NS(=O)(=O)c1cnn(-c2ccnc(C(F)(F)F)c2)c1 [Compound I-7, N-(6-(Dimethylamino)-1-Methyl-1H-Indazol-7-yl)-1-(2-(Trifluoromethyl)Pyridin-4-yl)-1H-Pyrazole-4-Sulfonamide] | ≤ 400 | 400 to 1000 |
| C#Cc1ccc2cnn(C)c2c1NS(=O)(=O)c1cnn(-c2ccnc(C(F)(F)F)c2)c1 [Compound I-8, N-(6-Ethynyl-1-Methylindazol-7-yl)-1-(2-(Trifluoromethyl) Pyridin-4-yl)-Pyrazole-4-Sulfonamide] | ≤ 400 | 400 to 1000 |
| CCOc1ccc2cnn(C)c2c1NS(=O)(=O)c1cnn(-c2ccnc(C(F)(F)F)c2)c1 [Compound I-9, N-(6-Ethoxy-1-Methyl-1H-Indazol-7-yl)-1-(2-(Trifluoromethyl)Pyridin-4-yl)-1H-Pyrazole-4-Sulfonamide] | ≤ 400 | 400 to 1000 |
| CC(C)Oc1ccc2cnn(C)c2c1NS(=O)(=O)c1cnn(-c2ccnc(C(F)(F)F)c2)c1 [Compound I-10, N-(6-Isopropoxy-1-Methyl-1H-Indazol-7-yl)-1-(2-(Trifluoromethyl)Pyridin-4-yl)-1H-Pyrazole-4-Sulfonamide] | ≤ 400 | 400 to 1000 |
| Cn1ncc2cccc(NS(=O)(=O)c3cnn(-c4ccnc(C(F)(F)F)c4)c3)c21 [Compound I-16, N-(1-Methyl-1H-Indazol-7-yl)-1-(2-(Trifluoromethyl)Pyridin-4-yl)-1H-Pyrazole-4-Sulfonamidemide] | > 2500 | > 2500 |

The next lines start with the values.

| IC50 [1] [nM] | IC50 [2] [nM] | Structure (SMILES) |
| --- | --- | --- |
| ≤ 400 | < 400 | CCc1ccc2cnn(C)c2c1NS(=O)(=O)c1cnn(-c2ccc(C(F)(F)F)cn2)c1 [Compound I-1, 3N-(6-Ethyl-1-Methyl-1H-Indazol-7-yl)-1-(5-(Trifluoromethyl)Pyridin-2-yl)-1H-Pyrazole-4-Sulfonamide] |
| ≤ 400 | < 400 | CCc1ccc2cnn(C)c2c1NS(=O)(=O)c1cnn(-c2cncc(C(F)(F)F)c2)c1 [Compound I-3, N-(6-Ethyl-1-Methyl-1H-Indazol-7-yl)-1-(5-(Trifluoromethyl) Pyridin-3-yl)-1H-Pyrazole-4-Sulfonamide] |
| ≤ 400 | < 400 | CCc1ccc2cnn(C)c2c1NS(=O)(=O)c1cnn(-c2cc(C(F)(F)F)ccn2)c1 [Compound I-14, N-(6-Ethyl-1-Methyl-1H-Indazol-7-yl)-1-(4-(Trifluoromethyl) Pyridin-2-yl)-1H-Pyrazole-4-Sulfonamide] |
| 400 to 1000 | < 400 | Cn1ncc2cccc(NS(=O)(=O)c3cnn(-c4cc(C(F)(F)F)ccn4)c3)c21 [Compound I-15, N-(1-Methyl-1H-Indazol-7-yl)-1-(4-(Trifluoromethyl)Pyridin-2-yl)-1H-Pyrazole-4-Sulfonamide] |
| ≤ 400 | 400 to 1000 | Cn1ncc2ccc(C3CC3)c(NS(=O)(=O)c3cnn(-c4cncc(C(F)(F)F)c4)c3)c21 [Compound I-18] |
| ≤ 400 | < 400 | CCc1ccc2cnn(C)c2c1NS(=O)(=O)c1cnn(-c2cc(C(F)(F)F)ncn2)c1 [Compound I-19, N-(6-Ethyl-1-Methyl-1H-Indazol-7-yl)-1-(6-(Trifluoromethyl) Pyrimidin-4-yl)-1H-Pyrazole-4-Sulfonamide] |
| 1000 to 2500 | 1000 to 2500 | Cn1ncc2ccc(C3CC3)c(NS(=O)(=O)c3cnn(-c4ccc(C(F)(F)F)cn4)c3)c21 [Compound I-20, N-(6-Cyclopropyl-1-Methyl-1H-Indazol-7-yl)-1-(5-(Trifluoromethyl)Pyridin-2-yl)-1H-Pyrazole-4-Sulfonamide] |
| ≤ 400 | < 400 | Cn1ncc2ccc(C3CC3)c(NS(=O)(=O)c3cnn(-c4ccnc(C(F)(F)F)c4)c3)c21 [Compound I-21, N-(6-cyclopropyl-1-Methyl-1H-Indazol-7-yl)-1-(2-(Trifluoromethyl)Pyridin-4-yl)-1H-Pyrazole-4-Sulfonamide] |
| ≤ 400 | < 400 | COc1ccc2cnn(C)c2c1NS(=O)(=O)c1cnn(-c2ccc(C(F)(F)F)cn2)c1 [Compound I-22, N-(6-Methoxy-1-Methyl-1H-Indazol-7-yl)-1-(5-(Trifluoromethyl)Pyridin-2-yl)-1H-Pyrazole-4-Sulfonamide] |
